In patent publication EP2958918B1, “DIHYDROPTERIDINONES II” (Boehringer Ingelheim International GmbH, priority 2013, dated 2014):

Assays:
Aβ42 = Aβ42 cellular assay: inhibition of Aβ42 production in H4 neuroglioma cells stably expressing human APP695, electrochemiluminescence (Meso Scale Discovery) on supernatant; assay type: cell-based; conditions: 22 hours incubation, tested range 30 µM to 0.1 nM
Method: (§1) Cells were plated out to near confluency. The compounds to be tested were received as 10 mM stocks in 100% DMSO. A dilution series was initially generated in 100% DMSO and then diluted 200-fold in cell culture media such that the tested concentration range was 30 µM to 0.1 nM and the final DMSO concentration was 0.5%. The diluted compounds were incubated with the cells for 22 hours in an incubator at 37°C and 5% CO2. Aβ42 as well as Aβ total levels were then measured post-incubation from the supernatant of the cells. Aβ42 levels were determined using a specific electrochemiluminescence assay provided by Meso Scale Discovery (Catalog # L21CA-1) according to the manufacturer's protocol. Aβ total levels were likewise determined using a specific electrochemiluminescence assay provided by Meso Scale Discovery (Catalog # L21ZA-1) according to the manufacturer's protocol.
(§2) In order to absolutely define the described compounds as modulators of y-Secretase as opposed to simply inhibitors of γ-Secretase, measurements of not only Aβ42 but also Aβ total are performed.

Aβ total = Aβ total cellular assay: inhibition of Aβ total production in H4 neuroglioma cells stably expressing human APP695, electrochemiluminescence (Meso Scale Discovery) on supernatant; used for the ratio Aβ total IC50 / Aβ42 IC50; assay type: cell-based; conditions: higher ratio = more specific inhibition of Aβ42
Method: as §1, §2

Structure (SMILES) | IC50 (Aβ42) [nM] | Ratio Aß(total)/Aß42 (Aβ total)
Cc1ncc(-c2ccc(Nc3ncc4c(n3)N(C)C3(CCc5ccccc5C3)C(=O)N4C)cn2)o1 (centres unmarked) [Example 37] | 940 | 29
COc1cc(Nc2ncc3c(n2)N(C)C2(CCCC2)C(=O)N3CC(F)(F)F)ccc1-n1cnc(C)c1 [Example 54] | 22 | 116
COc1cc(Nc2ncc3c(n2)N(C)C2(CCOC2)C(=O)N3C)ccc1-c1cnc(C)o1 (centres unmarked) [Example 7] | 95 | > 315
COc1cc(Nc2ncc3c(n2)NC2(CCOC2)C(=O)N3CCC(C)C)ccc1-n1cnc(C)c1 (centres unmarked) [Example 29] | 270 | 39
COc1cc(Nc2ncc3c(n2)N(C)C2(CCOCC2)C(=O)N3C)ccc1-c1cnc(C)o1 [Example 1] | 120 | > 244
COCCN1C(=O)C2(CCOCC2)N(C)c2nc(Nc3ccc(-n4cnc(C)c4)c(OC)c3)ncc21 [Example 11] | 310 | 26
COc1cc(Nc2ncc3c(n2)N(C)C2(COCCOC2)C(=O)N3)ccc1-n1cnc(C)c1 [Example 25] | 290 | 91
COc1cc(Nc2ncc3c(n2)N(C)C2(CCOC2)C(=O)N3CC(F)F)ccc1-n1cnc(C)c1 (centres unmarked) [Example 37h] | 123 | 85
COc1cc(Nc2ncc3c(n2)N(CC2CCOCC2)C2(CCOC2)C(=O)N3CC2CCOCC2)ccc1-n1cnc(C)c1 (centres unmarked) [Example 24] | 3000 | >10
COc1cc(Nc2nc(CC(C)C)c3c(n2)N(C)C2(CCOC2)C(=O)N3C)ccc1-n1cnc(C)c1 (centres unmarked) [Example 32] | 79 | 124
COc1cc(Nc2nc3c(c(C(F)(F)F)n2)N(C)C(=O)C2(CCOCC2)N3C)ccc1-n1cnc(C)c1 [Example 37d] | 815 | >36
COc1cc(Nc2ncc3c(n2)N(C)C2(CC2)C(=O)N3C2COC2)ccc1-n1cnc(C)c1 [Example 47] | 191 | 98
COc1cc(Nc2ncc3c(n2)N(C)C2(CC2)C(=O)N3CC(F)F)ccc1-n1cnc(C)c1 [Example 52] | 110 | 61
COc1cc(Nc2ncc3c(n2)N(C)C2(CCOC2)C(=O)N3CC(F)(F)F)ccc1-n1cnc(C)c1 (centres unmarked) [Example 37e] | 86 | 82
COc1cc(Nc2ncc3c(n2)N(C)C2(CCOC2)C(=O)N3C2COC2)ccc1-n1cnc(C)c1 (centres unmarked) [Example 21] | 220 | 114
COc1cc(Nc2nc3c(c(C(C)(C)O)n2)N(C)C(=O)C2(CCOC2)N3C)ccc1-c1cnc(C)o1 (centres unmarked) [Example 40] | 485 | > 62
Cc1cn(-c2ccc(Nc3ncc4c(n3)N(C)C3(CCOC3)C(=O)N4C)cc2C#N)cn1 (centres unmarked) [Example 18] | 300 | 145
Cc1ncc(-c2ccc(Nc3nc(C)c4c(n3)N(C)C3(CCOCC3)C(=O)N4C)cn2)o1 [Example 5] | 3200 | >9
COc1cc(Nc2ncc3c(n2)N(C)C2(CCC2)C(=O)N3CC(F)(F)F)ccc1-c1cnc(C)o1 [Example 45] | 58 | > 517
COc1cc(Nc2ncc3c(n2)N(C)C2(CCOC2)C(=O)N3C)ccc1-n1cnc(C)c1 (centres unmarked) [Example 6] | 220 | > 136
COc1cc(Nc2ncc3c(n2)N(C)C2(CCOCC2)C(=O)N3C)ccc1-n1cnc(C)c1 [Example 2] | 190 | 89
COc1cc(Nc2nc(CC(C)C)c3c(n2)NC2(CCOC2)C(=O)N3)ccc1-n1cnc(C)c1 (centres unmarked) [Example 33] | 140 | 124
COc1cc(Nc2ncc3c(n2)N(C)C2(CC4CCC2C4)C(=O)N3C)cnc1-n1cnc(C)c1 (centres unmarked) [Example 49] | 95 | 69
COc1cc(Nc2ncc3c(n2)N(C)C2(CCOCC2)C(=O)N3C2CC2)ccc1-n1cnc(C)c1 [Example 37b] | 172 | 47
COc1cc(Nc2ncc3c(n2)N(C)C2(CCc4ccccc4C2)C(=O)N3C)ccc1-n1cnc(C)c1 (centres unmarked) [Example 36] | 69 | 179

Structure (SMILES) | IC50 (Aβ42) [nM] | Ratio Aß(total)/Aß42 (Aβ total)
COc1cc(Nc2ncc3c(n2)N(C)C2(CCOC2)C(=O)N3C2CC2)ccc1-n1cnc(C)c1 (centres unmarked) [Example 37g] | 196 | 58
COCCN1C(=O)C2(CCOC2)N(C)c2nc(Nc3ccc(-n4cnc(C)n4)c(OC)c3)ncc21 (centres unmarked) [Example 15] | 2100 | >15
COc1cc(Nc2ncc3c(n2)NC2(CCOC2)C(=O)N3C2COC2)ccc1-n1cnc(C)c1 (centres unmarked) [Example 28] | 10500 | >3
COc1cc(Nc2ncc3c(n2)N(C)C2(CCCC2)C(=O)N3C)ccc1-n1cnc(C)c1 [Example 53] | 40 | 132
COc1cc(Nc2ncc3c(n2)N(C)C2(CC2)C(=O)N3CC(F)(F)F)ccc1-n1ccnc1C [Example 51] | 59 | 126
COc1cc(Nc2ncc3c(n2)N(C)C2(CC2)C(=O)N3CC(F)(F)F)cnc1-n1cnc(C)c1 [Example 50] | 204 | > 147
COc1cc(Nc2ncc3c(n2)N(C)C2(CCOC2)C(=O)N3c2ccc(F)cc2)ccc1-n1cnc(C)c1 (centres unmarked) [Example 37a] | 60 | 307
COc1cc(Nc2ncc3c(n2)N(C)C2(CCOCC2)C(=O)N3Cc2ccc(F)cc2F)ccc1-n1cnc(C)c1 [Example 37j] | 73 | 57
COc1cc(Nc2ncc3c(n2)N(C)C2(COCCOC2)C(=O)N3C)ccc1-n1cnc(C)c1 [Example 27] | 270 | > 112
COCCN1C(=O)C2(CCOC2)N(C)c2nc(Nc3ccc(-n4cnc(C)c4)c(OC)c3)ncc21 (centres unmarked) [Example 16] | 180 | 88
Cc1cn(-c2ccc(Nc3ncc4c(n3)NC3(CCOC3)C(=O)N4C)cc2C#N)cn1 (centres unmarked) [Example 19] | 280 | > 257
COc1cc(Nc2ncc3c(n2)N(C)C2(CCOC2)C(=O)N3)ccc1-n1cnc(C)c1 (centres unmarked) [Example 10] | 620 | 46
COc1cc(Nc2ncc3c(n2)N(C)C2(CC2)C(=O)N3c2ccc(F)cc2)ccc1-n1cnc(C)c1 [Example 46] | 98 | > 306
Cc1ncc(-c2ccc(Nc3ncc4c(n3)N(C)C3(CCOCC3)C(=O)N4C)cn2)o1 [Example 3] | 5400 | >6
COc1cc(Nc2nc(C)c3c(n2)N(C)C2(CCOCC2)C(=O)N3C)ccc1-n1cnc(C)c1 [Example 4] | 290 | 101
COc1cc(Nc2ncc3c(n2)N(C2CCCC2)C2(CC2)C(=O)N3C)ccc1-n1cnc(C)c1 [Example 38] | 410 | >15
COc1cc(Nc2ncc3c(n2)N(C)C2(CCC2)C(=O)N3C)ccc1-n1cnc(C)c1 [Example 43] | 123 | 237
Cc1ncc(-c2ccc(Nc3ncc4c(n3)N(C)C3(CCOC3)C(=O)N4C)cn2)o1 (centres unmarked) [Example 8] | 3000 | >10
COc1cc(Nc2ncc3c(n2)N(C)C2(CCCOCC2)C(=O)N3C)ccc1-n1cnc(C)c1 (centres unmarked) [Example 42] | 206 | 51
CCc1nc(Nc2cnc(-n3cnc(C)c3)c(OC)c2)nc2c1N(C)C(=O)C1(CC1)N2C [Example 37i] | 150 | 54
COc1cc(Nc2ncc3c(n2)N(C)C2(CC2)C(=O)N3CC(F)(F)F)ccc1-n1cnc(C)c1 [Example 44] | 85 | 50
COCCN1C(=O)C2(CCOCC2)N(C)c2nc(Nc3ccc(-c4ccnc(C)c4)cc3)ncc21 [Example 12] | 1900 | 11
CCCN1C(=O)C2(CCOCC2)N(C)c2nc(Nc3ccc(-n4cnc(C)c4)c(OC)c3)ncc21 [Example 17] | 94 | 65
COc1cc(Nc2ncc3c(n2)N(C)C2(COC2)C(=O)N3C)ccc1-n1cnc(C)c1 [Example 41] | 1220 | > 25
